Calls of active or inactive are those of the source. The rule behind the calls is not given here.
What was measured:
MCF7 = assay: Antiproliferative activity against human MCF7 cells assessed as reduction in cell viability after 72 hrs by MTT assay; type: functional, cell-based
[1] = target: Serine/threonine-protein kinase mTOR (Homo sapiens) (UniProt P42345); assay: Inhibition of mTOR phosphorylation in human MDA-MB-231 cells up to 50 uM measured after 48 hrs by Western blot analysis; type: cell-based
[2] = Effect on RAS/RAF/MEK/ERK pathway in human MDA-MB-231 cells assessed as increase in ERK1/2 phosphorylation up to 50 uM measured after 48 hrs by Western blot analysis; type: cell-based
MDA-MB-231 [3] = assay: Downregulation of cyclin-D1 expression in human MDA-MB-231 cells up to 50 uM measured after 48 hrs by Westernblot analysis; type: functional, cell-based
MCF-10A [4] = assay: Cytotoxicity against human MCF10A assessed as reduction in cell viability up to 12 uM after 72 hrs by MTT assay; type: cell-based
MCF-10A [5] = assay: Cytotoxicity against human MCF10A assessed as reduction in cell viability at 25 uM after 72 hrs by MTT assay; type: cell-based
MDA-MB-231 [6] = assay: Effect on EGFR expression in human MDA-MB-231 cells up to 50 uM measured after 48 hrs by Westernblot analysis; type: functional, cell-based
MDA-MB-231 [7] = assay: Down regulation of slug levels in human MDA-MB-231 cells up to 50 uM measured after 48 hrs by Westernblot analysis; type: functional, cell-based
[8] = target: Transcription factor p65 (Homo sapiens) (UniProt Q04206); assay: Down regulation of NFkappaB p65 phosphorylation in human MDA-MB-231 cells up to 50 uM measured after 48 hrs by Western blot analysis; type: cell-based
MDA-MB-231 [9] = assay: Antiproliferative activity against human MDA-MB-231 cells assessed as reduction in cell viability after 72 hrs by MTT assay; type: functional, cell-based; conditions: MDA-MB-231, 72 h
[10] = Homo sapiens, MCF7, 72 h, read-out: IC50

Sequence of Transcription factor p65 (Homo sapiens) (Q04206 whole entry): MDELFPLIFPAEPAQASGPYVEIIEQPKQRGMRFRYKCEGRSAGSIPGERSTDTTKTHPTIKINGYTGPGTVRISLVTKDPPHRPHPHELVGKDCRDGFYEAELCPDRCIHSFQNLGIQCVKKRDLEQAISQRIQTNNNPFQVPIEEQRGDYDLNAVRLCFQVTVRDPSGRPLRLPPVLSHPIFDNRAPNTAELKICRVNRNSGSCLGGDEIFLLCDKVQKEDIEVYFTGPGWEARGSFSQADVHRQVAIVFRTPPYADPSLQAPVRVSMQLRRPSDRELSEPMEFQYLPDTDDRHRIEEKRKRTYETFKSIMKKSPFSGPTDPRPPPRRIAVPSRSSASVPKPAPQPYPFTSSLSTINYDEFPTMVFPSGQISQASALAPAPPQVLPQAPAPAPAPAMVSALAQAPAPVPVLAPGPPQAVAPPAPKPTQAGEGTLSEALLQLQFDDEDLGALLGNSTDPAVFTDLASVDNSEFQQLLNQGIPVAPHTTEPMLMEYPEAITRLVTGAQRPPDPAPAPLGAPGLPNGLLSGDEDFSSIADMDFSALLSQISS

Compound | IC50 (MCF7; [10]) [µM] | also measured
COc1ccc2c(c1)CC[C@@H]1[C@@H]2CC[C@@]2(C)[C@H]1CC[C@]2(C/C(=N\S(=O)(=O)c1ccc(C)cc1)OCC(Cl)(Cl)Cl)OC | 22.2 | 
COc1ccc2c(c1)CC[C@@H]1[C@@H]2CC[C@@]2(C)[C@H]1CC[C@]2(C/C(=N\S(=O)(=O)c1ccc(C)cc1)OC(C)C)OC | 4.3 | inhibition [1]: inactive; Activity [2]: Active; Activity (MDA-MB-231 [3]): Active; Activity (MCF-10A [4]): Non-Toxic; Activity (MCF-10A [5]): Toxic; Activity (MDA-MB-231 [6]): inactive; Activity (MDA-MB-231 [7]): Active; Activity [8]: Active; IC50 (MDA-MB-231 [9]): 11.3 µM
CCO/C(C[C@]1(O)CC[C@H]2[C@@H]3CCc4cc(OCc5ccccc5)ccc4[C@H]3CC[C@@]21C)=N/S(=O)(=O)c1ccc(C)cc1 |  | IC50 (MCF7; mcf7): Not Active
CCO/C(C[C@]1(O)CC[C@H]2[C@@H]3CCc4cc(OC(C)=O)ccc4[C@H]3CC[C@@]21C)=N/S(=O)(=O)c1ccc(C)cc1 | 12.2 | 
CCCO/C(C[C@]1(O)CC[C@H]2[C@@H]3CCc4cc(OC)ccc4[C@H]3CC[C@@]21C)=N/S(=O)(=O)c1ccc(C)cc1 | 15.5 | 
CCCO/C(C[C@]1(O)CC[C@H]2[C@@H]3CCC4=CC(=O)CC[C@]4(C)[C@H]3CC[C@@]21C)=N/S(=O)(=O)c1ccc(C)cc1 | 22.4 | 
CCO/C(C[C@]1(O)CC[C@H]2[C@@H]3CCc4cc(O)ccc4[C@H]3CC[C@@]21C)=N/S(=O)(=O)c1ccc(C)cc1 | 15.3 | 
CCO/C(CC1=CC[C@H]2[C@@H]3CCc4cc(OC(C)=O)ccc4[C@H]3CC[C@]12C)=N/S(=O)(=O)c1ccc(C)cc1 | 5.6 | 
COc1ccc2c(c1)CC[C@@H]1[C@@H]2CC[C@@]2(C)[C@H]1CC[C@]2(C/C(=N\S(=O)(=O)c1ccc(C)cc1)OCC(C)C)OC | 8.5 | 
CCO/C(C[C@]1(O)CC[C@H]2[C@@H]3CCc4cc(OS(=O)(=O)c5ccc(C)cc5)ccc4[C@H]3CC[C@@]21C)=N/S(=O)(=O)c1ccc(C)cc1 |  | IC50 (MCF7; mcf7): Not Active
CCO/C(C[C@]1(O)CC[C@H]2[C@@H]3CCc4cc(OC)ccc4[C@H]3CC[C@@]21C)=N/S(=O)(=O)c1ccc(C)cc1 | 11.8 | 
COc1ccc2c(c1)CC[C@@H]1[C@@H]2CC[C@@]2(C)[C@H]1CC[C@]2(C/C(=N\S(=O)(=O)c1ccc(C)cc1)OC1CCCCC1)OC | 20 | 
CCO/C(C[C@]1(OC)CC[C@H]2[C@@H]3CCc4cc(OC)ccc4[C@H]3CC[C@@]21C)=N/S(=O)(=O)c1ccc(C)cc1 | 7 | 
CCCCO/C(C[C@]1(OC)CC[C@H]2[C@@H]3CCc4cc(OC)ccc4[C@H]3CC[C@@]21C)=N/S(=O)(=O)c1ccc(C)cc1 | 10.5 | 
CCCCCCO/C(C[C@]1(OC)CC[C@H]2[C@@H]3CCc4cc(OC)ccc4[C@H]3CC[C@@]21C)=N/S(=O)(=O)c1ccc(C)cc1 |  | IC50 (MCF7; mcf7): Not Active
CCCO/C(C[C@]1(O)CC[C@H]2[C@@H]3CCc4cc(OC(C)=O)ccc4[C@H]3CC[C@@]21C)=N/S(=O)(=O)c1ccc(C)cc1 | 17.9 | 
CCO/C(CC1=CC[C@H]2[C@@H]3CCc4cc(OC)ccc4[C@H]3CC[C@]12C)=N/S(=O)(=O)c1ccc(C)cc1 | 9.5 | 
Cc1ccc(S(=O)(=O)NC(=O)C[C@]2(O)CC[C@H]3[C@@H]4CCc5cc(O)ccc5[C@H]4CC[C@@]32C)cc1 |  | IC50 (MCF7; mcf7): Not Active
CCO/C(C[C@]1(O)CC[C@H]2[C@@H]3CCC4=CC(=O)CC[C@]4(C)[C@H]3CC[C@@]21C)=N/S(=O)(=O)c1ccc(C)cc1 | 9.9 | 
CCCO/C(C[C@]1(OC)CC[C@H]2[C@@H]3CCc4cc(OC)ccc4[C@H]3CC[C@@]21C)=N/S(=O)(=O)c1ccc(C)cc1 | 4.5 | 
COc1ccc2c(c1)CC[C@@H]1[C@@H]2CC[C@@]2(C)[C@H]1CC[C@]2(C/C(=N\S(=O)(=O)c1ccc(C)cc1)OCCCCl)OC | 11.4 | 
COc1ccc2c(c1)CC[C@@H]1[C@@H]2CC[C@@]2(C)[C@H]1CC[C@]2(C/C(=N\S(=O)(=O)c1ccc(C)cc1)OCCC(C)C)OC | 21.7 | 
COc1ccc2c(c1)CC[C@@H]1[C@@H]2CC[C@@]2(C)[C@H]1CC[C@@]2(O)CC(=O)NS(=O)(=O)c1ccc(C)cc1 |  | IC50 (MCF7; mcf7): Not Active
CCCCCCCO/C(C[C@]1(OC)CC[C@H]2[C@@H]3CCc4cc(OC)ccc4[C@H]3CC[C@@]21C)=N/S(=O)(=O)c1ccc(C)cc1 |  | IC50 (MCF7; mcf7): Not Active
CCCCCCCCCCCCO/C(C[C@]1(OC)CC[C@H]2[C@@H]3CCc4cc(OC)ccc4[C@H]3CC[C@@]21C)=N/S(=O)(=O)c1ccc(C)cc1 |  | IC50 (MCF7; mcf7): Not Active

Source: ChEMBL document CHEMBL4351024, “Steroidal N-Sulfonylimidates: Synthesis and biological evaluation in breast cancer cells” (Eur J Med Chem, 2019)
